From ChEMBL document CHEMBL4014323, “Hydroxy-Substituted Heteroarylpiperazines: Novel Scaffolds for β-Arrestin-Biased D2R Agonists” (J Med Chem, 2017)

Experiments:
D(1B) dopamine receptor = D(1B) dopamine receptor (Homo sapiens, UniProt P21918); test: biochemical
Description: Displacement of [3H]SCH23390 from human D5R expressed in HEK293T cell membranes by radioligand binding assay

D(2) dopamine receptor [1] = target: T1, D(2) dopamine receptor (Homo sapiens, UniProt P14416); test: biochemical; type: cell-based
Description: Displacement of [3H]spiperone from human D2SR expressed in CHO cell membranes by radioligand binding assay

D(1A) dopamine receptor = D(1A) dopamine receptor (Homo sapiens, UniProt P21728); test: biochemical
Description: Displacement of [3H]SCH23390 from human D1R expressed in HEK293T cell membranes by radioligand binding assay

D(4) dopamine receptor = target: T2, D(4) dopamine receptor (Homo sapiens, UniProt P21917); test: biochemical; type: cell-based
T2 sequence (P21917 whole entry): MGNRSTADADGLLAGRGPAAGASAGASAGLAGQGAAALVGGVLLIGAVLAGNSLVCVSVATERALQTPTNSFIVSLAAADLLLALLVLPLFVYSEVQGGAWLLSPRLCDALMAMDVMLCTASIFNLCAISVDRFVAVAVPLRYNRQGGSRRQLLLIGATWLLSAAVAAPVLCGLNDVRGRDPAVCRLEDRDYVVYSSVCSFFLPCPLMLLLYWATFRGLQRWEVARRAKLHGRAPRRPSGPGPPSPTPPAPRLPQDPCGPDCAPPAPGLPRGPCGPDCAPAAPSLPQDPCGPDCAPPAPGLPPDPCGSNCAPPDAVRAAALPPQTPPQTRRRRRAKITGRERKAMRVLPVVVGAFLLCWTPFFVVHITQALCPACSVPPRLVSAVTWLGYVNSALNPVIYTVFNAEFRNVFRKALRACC
Description: Displacement of [3H]spiperone from human D4R expressed in CHO cell membranes by radioligand binding assay

D(2) dopamine receptor [2] = target: T1, D(2) dopamine receptor; test: biochemical; type: cell-based; remark: listed apart in the source
Description: Displacement of [3H]spiperone from human D2LR expressed in CHO cell membranes by radioligand binding assay

[3] = target: 5-hydroxytryptamine receptor 2A (Homo sapiens, UniProt P28223); test: biochemical
5-hydroxytryptamine receptor 2A, sequence (P28223 whole entry): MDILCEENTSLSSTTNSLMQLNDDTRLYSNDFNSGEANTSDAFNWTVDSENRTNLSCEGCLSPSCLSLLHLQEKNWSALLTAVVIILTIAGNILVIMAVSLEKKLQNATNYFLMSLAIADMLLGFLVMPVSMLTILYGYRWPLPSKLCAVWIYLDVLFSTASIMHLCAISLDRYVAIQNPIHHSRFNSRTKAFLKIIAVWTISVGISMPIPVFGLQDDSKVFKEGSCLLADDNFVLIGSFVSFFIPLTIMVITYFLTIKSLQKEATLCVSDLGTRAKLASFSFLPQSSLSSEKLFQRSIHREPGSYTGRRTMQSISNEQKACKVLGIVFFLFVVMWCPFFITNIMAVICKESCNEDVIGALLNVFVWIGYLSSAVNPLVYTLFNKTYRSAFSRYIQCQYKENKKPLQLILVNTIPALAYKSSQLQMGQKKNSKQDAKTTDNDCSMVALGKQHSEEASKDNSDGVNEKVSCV
Description: Displacement of [3H]ketanserin from human 5-HT2AR expressed in HEK293T cell membranes by radioligand binding assay

HEK293 = test: Cytotoxicity against HEK293 cells; type: cell-based; conditions: human
D(2) dopamine receptor [4] = target: T1, D(2) dopamine receptor; type: cell-based, HEK-293T
Description: Partial agonist activity at human D2SR expressed in HEK293T cells co-expressing (EA)beta-arrestin2 and GRK2 assessed as induction of beta-arrestin2 recruitment after 5 hrs by chemiluminescence assay

[5] = Half life in Sprague-Dawley rat liver microsomes at 20 uM by HPLC analysis; type: ADME, microsome
D(2) dopamine receptor [6] = target: T1, D(2) dopamine receptor; type: cell-based, HEK-293T; remark: listed apart in the source
Description: Partial agonist activity at human D2SR expressed in HEK293T cells co-expressing (EA)beta-arrestin2 assessed as induction of beta-arrestin2 recruitment after 5 hrs by chemiluminescence assay

D(2) dopamine receptor [7] = target: T1, D(2) dopamine receptor; type: functional, cell-based, HEK-293T
Description: Agonist activity at human D2S receptor expressed in HEK293T cell membranes coexpressing Galphao1 assessed as induction of nucleotide exchange preincubated for 30 mins followed by addition of [35S]GTPgammaS measured after 30 mins by [35S]GTPgammaS binding assay

Liver = test: Metabolic stability in Sprague-Dawley rat liver microsomes at 20 uM measured after 15 mins by HPLC-based mass-spectrometry; type: ADME, microsome; conditions: 0.25 h
[8] = Intrinsic clearance in Sprague-Dawley rat liver microsomes assessed per mg protein at 20 uM by HPLC analysis; type: ADME, microsome; conditions: read-out: CLH
D(2) dopamine receptor [9] = target: T1, D(2) dopamine receptor; conditions: HEK-293T, at 1e-07 to 100 µM
Description: Agonist activity at human D2S receptor expressed in HEK293T cell membranes coexpressing Galphao1 assessed as induction of nucleotide exchange at 0.1 pM to 100 uM preincubated for 30 mins followed by addition of [35S]GTPgammaS measured after 30 mins by [35S]GTPgammaS binding assay relative to quinpirole

D(2) dopamine receptor [10] = target: T1, D(2) dopamine receptor; test: Agonist activity at human D2S receptor expressed in HEK293T cell membranes coexpressing Galphao1 assessed as induction of nucleotide exchange at 30 uM preincubated for 30 mins followed by addition of [35S]GTPgammaS measured after 30 mins by [35S]GTPgammaS binding assay relative to quinpirole; type: functional; conditions: HEK-293T
[11] = target: T3, Voltage-gated inwardly rectifying potassium channel KCNH2 (Homo sapiens, UniProt Q12809); test: Inhibition of human ERG expressed in CHO cells assessed as reduction in tail current at -40 holding potential by automated patch-clamp assay; type: cell-based
T3 sequence (Q12809 whole entry): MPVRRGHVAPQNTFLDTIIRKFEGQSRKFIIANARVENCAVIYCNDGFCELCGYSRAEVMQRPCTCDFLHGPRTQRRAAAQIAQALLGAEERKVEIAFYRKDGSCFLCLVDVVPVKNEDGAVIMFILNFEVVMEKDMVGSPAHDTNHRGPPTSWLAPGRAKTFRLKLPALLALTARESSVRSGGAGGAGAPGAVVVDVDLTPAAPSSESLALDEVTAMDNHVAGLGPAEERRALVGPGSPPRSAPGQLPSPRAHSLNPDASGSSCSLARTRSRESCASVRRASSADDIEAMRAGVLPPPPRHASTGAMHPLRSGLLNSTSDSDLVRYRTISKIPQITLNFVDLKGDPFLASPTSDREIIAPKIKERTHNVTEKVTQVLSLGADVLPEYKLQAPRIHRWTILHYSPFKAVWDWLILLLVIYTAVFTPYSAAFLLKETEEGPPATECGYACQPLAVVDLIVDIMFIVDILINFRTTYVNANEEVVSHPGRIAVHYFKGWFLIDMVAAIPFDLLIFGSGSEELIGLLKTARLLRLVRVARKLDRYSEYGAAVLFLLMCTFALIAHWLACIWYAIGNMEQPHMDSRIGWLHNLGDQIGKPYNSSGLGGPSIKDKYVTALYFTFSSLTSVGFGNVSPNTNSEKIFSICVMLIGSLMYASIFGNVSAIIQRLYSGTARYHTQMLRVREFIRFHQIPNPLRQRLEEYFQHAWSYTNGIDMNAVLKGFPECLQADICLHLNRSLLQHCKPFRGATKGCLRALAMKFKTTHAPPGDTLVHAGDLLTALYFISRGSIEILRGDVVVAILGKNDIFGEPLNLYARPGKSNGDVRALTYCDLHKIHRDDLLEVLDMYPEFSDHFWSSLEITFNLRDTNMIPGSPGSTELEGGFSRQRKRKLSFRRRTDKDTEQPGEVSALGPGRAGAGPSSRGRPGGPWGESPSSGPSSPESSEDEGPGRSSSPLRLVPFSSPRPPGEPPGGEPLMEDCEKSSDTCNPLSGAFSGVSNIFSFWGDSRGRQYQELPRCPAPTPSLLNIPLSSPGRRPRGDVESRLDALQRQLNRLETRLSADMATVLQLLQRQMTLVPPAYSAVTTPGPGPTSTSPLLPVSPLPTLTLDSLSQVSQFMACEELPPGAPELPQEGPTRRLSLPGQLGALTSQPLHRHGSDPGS

[12] = target: T3, Voltage-gated inwardly rectifying potassium channel KCNH2; test: Inhibition of human ERG expressed in CHO cells assessed as reduction in tail current at 1 uM and -40 holding potential by automated patch-clamp assay; type: cell-based
[13] = Binding affinity to microsomal protein in Sprague-Dawley rat liver microsomes after 60 mins in absence of NADPH by HPLC analysis; type: ADME; conditions: 1 h
hERG (KCNH2) [14] = target: T4, hERG (KCNH2) (Homo sapiens, UniProt Q12809); test: Inhibition of human ERG expressed in CHO cells assessed as tail current remaining at 50 uM and -40 holding potential by automated patch-clamp assay; type: cell-based; conditions: CHO cells expressing human ERG, read-out: Activity
T4 sequence (Q12809 whole entry): as above

[15] = Binding affinity to microsomal protein in Sprague-Dawley rat liver microsomes after 60 mins in presence of NADPH by HPLC analysis; type: ADME; conditions: read-out: PB (converted)
hERG (KCNH2) [16] = target: T4, hERG (KCNH2); test: Inhibition of human ERG expressed in CHO cells assessed as tail current remaining at 10 uM and -40 holding potential by automated patch-clamp assay; type: cell-based; conditions: CHO cells expressing human ERG, read-out: Activity

D(1A) dopamine receptor, sequence (P21728 whole entry): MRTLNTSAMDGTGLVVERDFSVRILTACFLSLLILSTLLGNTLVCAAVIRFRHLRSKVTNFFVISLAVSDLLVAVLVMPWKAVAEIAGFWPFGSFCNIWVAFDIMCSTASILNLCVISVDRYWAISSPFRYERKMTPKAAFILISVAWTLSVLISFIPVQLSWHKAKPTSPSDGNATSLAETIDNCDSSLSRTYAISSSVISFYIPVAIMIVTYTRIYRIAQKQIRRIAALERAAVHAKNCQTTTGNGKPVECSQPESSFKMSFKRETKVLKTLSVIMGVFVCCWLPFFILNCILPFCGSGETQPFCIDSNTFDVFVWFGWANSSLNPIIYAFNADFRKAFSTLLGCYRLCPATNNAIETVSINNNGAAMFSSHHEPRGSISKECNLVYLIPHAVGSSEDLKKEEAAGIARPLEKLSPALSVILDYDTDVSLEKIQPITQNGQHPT
T1 sequence (P14416 whole entry): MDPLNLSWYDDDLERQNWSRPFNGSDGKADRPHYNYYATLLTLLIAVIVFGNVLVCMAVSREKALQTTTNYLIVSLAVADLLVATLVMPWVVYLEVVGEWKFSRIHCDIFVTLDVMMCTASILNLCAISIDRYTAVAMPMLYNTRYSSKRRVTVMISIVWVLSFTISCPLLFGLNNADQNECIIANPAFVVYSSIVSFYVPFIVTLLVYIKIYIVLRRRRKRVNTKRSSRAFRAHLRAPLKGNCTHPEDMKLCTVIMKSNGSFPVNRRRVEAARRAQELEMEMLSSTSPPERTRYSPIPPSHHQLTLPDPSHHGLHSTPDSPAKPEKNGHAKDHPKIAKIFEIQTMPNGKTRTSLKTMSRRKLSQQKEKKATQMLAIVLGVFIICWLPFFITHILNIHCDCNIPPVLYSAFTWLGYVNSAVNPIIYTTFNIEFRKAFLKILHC
D(1B) dopamine receptor, sequence (P21918 whole entry): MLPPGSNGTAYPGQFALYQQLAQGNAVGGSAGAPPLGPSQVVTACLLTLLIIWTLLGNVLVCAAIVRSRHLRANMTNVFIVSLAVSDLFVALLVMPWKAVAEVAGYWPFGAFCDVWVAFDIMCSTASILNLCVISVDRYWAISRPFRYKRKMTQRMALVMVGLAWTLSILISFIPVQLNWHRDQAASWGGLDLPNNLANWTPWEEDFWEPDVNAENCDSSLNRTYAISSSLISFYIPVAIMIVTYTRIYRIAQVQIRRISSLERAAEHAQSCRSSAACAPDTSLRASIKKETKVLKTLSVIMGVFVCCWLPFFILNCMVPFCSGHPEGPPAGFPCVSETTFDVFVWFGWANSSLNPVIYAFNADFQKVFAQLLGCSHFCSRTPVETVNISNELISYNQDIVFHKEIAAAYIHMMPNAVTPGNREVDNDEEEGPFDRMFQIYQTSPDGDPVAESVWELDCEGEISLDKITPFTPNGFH

SMILES | Ki (D(1B) dopamine receptor) [µM] | Ki (D(2) dopamine receptor [1]) [nM] | Ki (D(1A) dopamine receptor) [µM] | Ki (D(4) dopamine receptor) [nM] | Ki (D(2) dopamine receptor [2]) [nM] | Ki [3] [nM] | Activity (HEK293) | EC50 (D(2) dopamine receptor [4]) [nM] | EC50 (D(2) dopamine receptor [6]) [nM] | EC50 (D(2) dopamine receptor [7]) [nM] | Emax (D(2) dopamine receptor [9]) [%] | other results
O=C1CCc2ccc(OCCCCN3CCN(c4ccc(O)c5oc(=O)ccc45)CC3)cc2N1 | > 20 | 2 | > 20 | 870 | 4.8 | > 20000 | Non-Toxic | – | – | – | – | –
CCCN(CCc1cccs1)[C@H]1CCc2c(O)cccc2C1 [ROTIGOTINE] | – | – | – | – | – | – | – | 4.4 | 4.1 | 3.2 | 91 | half-life at 20 µM [5]: 5.8 min; Stability (Liver): Unstable; microsomal CLint at 20 µM [8]: 240 µL/min/mg
O=C1CCc2ccc(OCCCCN3CCCN(c4ccc(O)c5c4OCC(=O)N5)CC3)cc2N1 | 15 | 1.6 | 2.7 | 60 | 1.6 | 2000 | Non-Toxic | 630 | 470 | 78 | 26 | –
O=C1CCc2ccc(OCCCCN3CCN(c4ccc(O)c5c4OCCO5)CC3)cc2N1 | 16 | 2.2 | 4.5 | 300 | 2.9 | 160 | Non-Toxic | – | – | – | – | –
O=C1COc2c(N3CCN(CCCCOc4ccn5nccc5c4)CC3)ccc(O)c2N1 | 16 | 0.86 | 2.3 | 4.8 | 2 | 1300 | Non-Toxic | – | 62 | – | – | –
O=C1CCc2ccc(OCCCCN3CCN(c4ccc(O)c5c4OCC(=O)N5)CC3)cc2N1 | 4.2 | 0.67 | 12 | 8.3 | 0.87 | 430 | Non-Toxic | – | 92 | – | – | –
CCCCn1cc(CCCOc2ccc(C(=O)NCCCN3CCCN(c4ccc(O)c5[nH]c(=O)ccc45)CC3)cc2OC)nn1 | > 20 | 440 | 17 | 3200 | 350 | 4200 | Non-Toxic | – | 680 | – | – | –
O=C1CCc2ccc(OCCCCN3CCCN(c4ccc(O)c5oc(=O)ccc45)CC3)cc2N1 | > 20 | 37 | > 20 | 5000 | 100 | 2300 | Non-Toxic | 130 | 220 | > 5000 | – | Emax (D(2) dopamine receptor [10]): 36%
CCCCn1cc(CCCOc2ccc(C(=O)NCCCCN3CCCN(c4ccc(O)c5[nH]c(=O)ccc45)CC3)cc2OC)nn1 | > 20 | 220 | 4 | 2100 | 200 | 1500 | Non-Toxic | – | 1600 | – | – | –
Oc1ccc(N2CCN(CCCCOc3ccn4nccc4c3)CC2)c2c1OCCO2 | 19 | 68 | 5.3 | 160 | 110 | 480 | Non-Toxic | – | – | – | – | –
O=C1CCc2ccc(OCCCCN3CCCN(c4ccc(O)c5[nH]c(=O)ccc45)CC3)cc2N1 | > 20 | 0.81 | 11 | 75 | 1.6 | 3400 | Non-Toxic | 200 | 190 | 67 | 55 | IC50 [11]: 19.7 µM; inhibition (INH) ([11]; human): Dose-dependent effect; inhibition (INH) [12]: Not Active; PB [13]: Not Active; half-life at 20 µM [5]: 130 min; activity at 50 µM (hERG (KCNH2) [14]): 21.5%; fraction unbound at 1 h [15]: 0.73; microsomal CLint at 20 µM [8]: 11 µL/min/mg; activity at 10 µM (hERG (KCNH2) [16]): 71.7%
CCCN[C@H]1CCc2nc(N)sc2C1 | – | – | – | – | – | – | – | – | – | – | 102 | –
O=c1ccc2c(N3CCN(CCCCOc4ccn5nccc5c4)CC3)ccc(O)c2[nH]1 | 13 | – | 4.7 | 31 | – | 3600 | Non-Toxic | – | – | – | – | –
O=C1CCc2ccc(OCCCCN3CCN(c4ccc(O)c5ncccc45)CC3)cc2N1 | 3.4 | 1.5 | 1.5 | 94 | 3.4 | 39 | Non-Toxic | – | – | – | – | –
Oc1ccc(N2CCN(CCCCOc3ccn4nccc4c3)CC2)c2cccnc12 | 5.8 | 25 | 1.1 | 55 | 33 | 200 | Non-Toxic | – | – | – | – | –
O=c1ccc2c(N3CCN(CCCCOc4ccn5nccc5c4)CC3)ccc(O)c2o1 | > 20 | 19 | > 20 | 270 | 40 | 2800 | Non-Toxic | – | – | – | – | –
CCCN(CCC)CCc1cccc2c1CC(=O)N2 [ROPINIROLE] | – | – | – | – | – | – | – | 30 | 89 | 330 | 92 | –
O=c1ccc2c(N3CCCN(CCCCOc4ccn5nccc5c4)CC3)ccc(O)c2[nH]1 | > 20 | 46 | 13 | 190 | 78 | 9000 | Non-Toxic | 250 | 370 | 90 | 56 | PB [13]: Not Active; half-life at 20 µM [5]: 51 min; Stability (Liver): Unstable; microsomal CLint at 20 µM [8]: 27 µL/min/mg
O=C1CCc2ccc(OCCCCN3CCN(c4ccc(O)c5[nH]c(=O)ccc45)CC3)cc2N1 | 9.3 | 1 | 5.4 | 66 | 0.89 | 2200 | Non-Toxic | – | 93 | – | – | –
